The text below walks through data of patent US12559529B2, “NPY2 receptor agonists” (Boehringer Ingelheim International GmbH, priority 2019, dated 2026).

SMILES strings stand for the structures. *1 amine or outer side, *2 acyl side, *3 side chain or, on linkers, in order; H or OH if unused. Where a SMILES comes first, the peptide text is derived from it. Side-chain parts run from the residue outwards. The star is where a group is joined. C18 diacid = O=C(O)CCCCCCCCCCCCCCCCC(=O)*; γGlu = O=C(O)[C@H](CCC(=O)[*:2])N[*:1]; Isovaleryl = CC(C)CC(=O)*; AEEA = NCCOCCOCC(=O)O

The assay has as its target T1, Human Neuropeptide Y2 Receptor (Homo sapiens, UniProt P49146).
T1 construct: purchased CHEMICON HTS066M
T1 sequence (P49146 1-381): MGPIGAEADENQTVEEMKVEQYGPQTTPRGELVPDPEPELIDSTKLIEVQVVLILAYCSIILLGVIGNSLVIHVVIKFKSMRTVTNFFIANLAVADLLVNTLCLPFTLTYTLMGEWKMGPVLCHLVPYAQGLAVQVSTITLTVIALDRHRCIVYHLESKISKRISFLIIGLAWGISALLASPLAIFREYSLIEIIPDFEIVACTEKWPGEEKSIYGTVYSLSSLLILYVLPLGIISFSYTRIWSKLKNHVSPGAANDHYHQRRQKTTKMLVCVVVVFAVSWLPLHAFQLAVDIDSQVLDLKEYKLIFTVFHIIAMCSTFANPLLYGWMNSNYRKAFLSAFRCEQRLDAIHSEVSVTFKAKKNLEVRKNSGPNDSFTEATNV
The experiment in a line: Radioligand binding competition assay (RLB). To be noted: Table 3; human 125I-PYY (1-36) 0.02 nM, Y2 receptor membranes; read-out: Ki. The method, then: The filtration RLB assay was carried out in 96-well plates in a final volume of 100 μl per well. Freeze-dried test peptides were dissolved in 100% dimethyl sulfoxide (DMSO) to stock solutions of 1 mM and serial dilutions were performed in assay buffer (50 mM HEPES, 5 mM MgCl2, 1 mM CaCl2), pH 7.4) containing 0.2% ovalbumin. […] Next, 80 μL membranes (HTS066M, ChemiSCREEN™ Human Neuropeptide Y2 Receptor Membrane Preparation, CHEMICON) were added to each well to give a final protein concentration of 0.5 μg/well. The plates were sealed and incubated at room temperature for 2 hours in a plate shaker set at 400 rpm. The incubation was stopped by vacuum filtration onto 0.5% poly-ethylene amine (PEI) presoaked GF/C filters using a 96-well FilterMate™ harvester (Perkin Elmer) followed by four washes with 300 μl/well ice-cold wash buffer (50 mM HEPES, 500 mM NaCl, pH7.4). Filter plates were then dried for 60 min at room temperature and the bottom of the plates was sealed with backing tape UniFilter-96. Finally, 50 μl/well scintillation counter cocktail (Microscint20, Packard) was added and the radioactivity was counted in the Packard TopCount NXT scintillation counter. IC50 values (the half maximal inhibitory concentration of the agonist) were calculated by nonlinear regression analysis of sigmoidal dose-response curves.
Turning to `CC(C)CC(=O)N[C@@H](C)C(=O)N1CCC[C@H]1C(=O)N[C@@H](CCC(=O)O)C(=O)N[C@@H](CCCCNC(=O)COCCOCCNC(=O)COCCOCCNC(=O)CC[C@H](NC(=O)CCCCCCCCCCCCCCCCC(=O)O)C(=O)O)C(=O)N1CCC[C@H]1C(=O)N[C@@H](CCC(=O)O)C(=O)N[C@@H](CCC(=O)O)C(=O)N[C@@H](CCC(=O)O)C(=O)N[C@@H](C)C(=O)N[C@@H](CCC(=O)O)C(=O)N1CCC[C@H]1C(=O)N[C@@H](CCC(=O)O)C(=O)N[C@@H](CCC(=O)O)C(=O)N[C@@H](CC(C)C)C(=O)N[C@@H](CCC(N)=O)C(=O)N[C@@H](CCCNC(=N)N)C(=O)N[C@@H](Cc1ccc(O)cc1)C(=O)N[C@@H](Cc1ccc(O)cc1)C(=O)N[C@H](C(=O)N[C@@H](CO)C(=O)N[C@@H](CC(C)C)C(=O)N[C@@H](CCCNC(=N)N)C(=O)N[C@@H](Cc1c[nH]cn1)C(=O)N[C@@H](Cc1ccc(O)cc1)C(=O)N[C@@H](Cc1ccc(O)cc1)C(=O)N[C@@H](CC(N)=O)C(=O)N[C@@H](Cc1c[nH]c2ccccc12)C(=O)N[C@@H](CC(C)C)C(=O)N[C@H](C(=O)N[C@@H](CCCNC(=N)N)C(=O)N[C@@H](CCC(N)=O)C(=O)N[C@@H](CCCNC(=N)N)C(=O)N[C@@H](Cc1ccc(O)cc1)C(N)=O)[C@@H](C)O)C(C)C` [Compound 89, N{alpha-4}-(3-methylbutanoyl)-N{epsilon-7}-[2-(2-{2-[2-(2-{2-[(4S)-4-carboxy-4-(17-carboxyheptadecanamido)butanamido]ethoxy}ethoxy)acetamido]ethoxy}ethoxy)acetamido]-[4A,7K,9E,11E,13E,18Q,22V,28Y,30W,31L]hPYY (4-36)], the Ki amounted to 9.61 nM.
`CC(C)CC(=O)N[C@@H](C)C(=O)N1CCC[C@H]1C(=O)N[C@@H](CCC(=O)O)C(=O)N[C@@H](CCCCNC(=O)COCCOCCNC(=O)COCCOCCNC(=O)CC[C@H](NC(=O)CCCCCCCCCCCCCCCCC(=O)O)C(=O)O)C(=O)N[C@H](C(=O)N[C@@H](CCC(=O)O)C(=O)N[C@@H](CCC(=O)O)C(=O)N[C@@H](CCC(=O)O)C(=O)N[C@@H](C)C(=O)N[C@@H](CO)C(=O)N1CCC[C@H]1C(=O)N[C@@H](CCC(=O)O)C(=O)N[C@@H](CCC(=O)O)C(=O)N[C@@H](CC(C)C)C(=O)N[C@@H](CCC(N)=O)C(=O)N[C@@H](CCCNC(=N)N)C(=O)N[C@@H](Cc1ccc(O)cc1)C(=O)N[C@@H](Cc1ccc(O)cc1)C(=O)N[C@H](C(=O)N[C@@H](CO)C(=O)N[C@@H](CC(C)C)C(=O)N[C@@H](CCCNC(=N)N)C(=O)N[C@@H](Cc1c[nH]cn1)C(=O)N[C@@H](Cc1ccc(O)cc1)C(=O)N[C@@H](Cc1ccc(O)cc1)C(=O)N[C@@H](CC(N)=O)C(=O)N[C@@H](Cc1c[nH]c2ccccc12)C(=O)N[C@@H](CC(C)C)C(=O)N[C@H](C(=O)N[C@@H](CCCNC(=N)N)C(=O)N[C@@H](CCC(N)=O)C(=O)N[C@@H](CCCNC(=N)N)C(=O)N[C@@H](Cc1ccc(O)cc1)C(N)=O)[C@@H](C)O)C(C)C)C(C)C` [Compound 153, N{alpha-4}-(3-methylbutanoyl)-N{epsilon-7}-[2-(2-{2-[2-(2-{2-[(4S)-4-carboxy-4-(17-carboxyheptadecanamido)butanamido]ethoxy}ethoxy)acetamido]ethoxy}ethoxy)acetamido]-[4A,7K,8V,9E,11E,18Q,22V,28Y,30W,31L]hPYY (4-36)] (Isovaleryl-APEK([AEEA-AEEA-γGlu-C18 diacid])VEEEASPEELQRYYVSLRHYYNWLTRQRY-NH2): the Ki stood at 14.4 nM.
For the molecule `CC(C)CC(=O)N[C@@H](C)C(=O)N1CCC[C@H]1C(=O)N[C@@H](CCC(=O)O)C(=O)N[C@@H](CCCCNC(=O)COCCOCCNC(=O)COCCOCCNC(=O)CC[C@H](NC(=O)CCCCCCCCCCCCCCCCC(=O)O)C(=O)O)C(=O)N1CCC[C@H]1C(=O)N[C@@H](CCC(=O)O)C(=O)N[C@@H](CCC(=O)O)C(=O)N[C@@H](CC(=O)O)C(=O)N[C@@H](C)C(=O)N[C@@H](CO)C(=O)N1CCC[C@H]1C(=O)N[C@@H](CCC(=O)O)C(=O)N[C@@H](CCC(=O)O)C(=O)N[C@@H](CC(C)C)C(=O)N[C@@H](CCC(N)=O)C(=O)N[C@@H](CCCNC(=N)N)C(=O)N[C@@H](Cc1ccc(O)cc1)C(=O)N[C@@H](Cc1ccc(O)cc1)C(=O)N[C@H](C(=O)N[C@@H](CO)C(=O)N[C@@H](CC(C)C)C(=O)N[C@@H](CCCNC(=N)N)C(=O)N[C@@H](C)C(=O)N[C@@H](Cc1ccc(O)cc1)C(=O)N[C@@H](Cc1ccc(O)cc1)C(=O)N[C@@H](CC(N)=O)C(=O)N[C@@H](Cc1c[nH]c2ccccc12)C(=O)N[C@@H](CC(C)C)C(=O)N[C@H](C(=O)N[C@@H](CCCNC(=N)N)C(=O)N[C@@H](CCC(N)=O)C(=O)N[C@@H](CCCNC(=N)N)C(=O)N[C@@H](Cc1ccc(O)cc1)C(N)=O)[C@@H](C)O)C(C)C` [Compound 63, N{alpha-4}-(3-methylbutanoyl)-N{epsilon-7}-[2-(2-{2-[2-(2-{2-[(4S)-4-carboxy-4-(17-carboxyheptadecanamido)butanamido]ethoxy}ethoxy)acetamido]ethoxy}ethoxy)acetamido]-[4A,7K,9E,18Q,22V,26A,28Y,30W,31L]hPYY (4-36)], the Ki amounted to 3.13 nM.
In the case of `CC(C)CC(=O)N[C@@H](C)C(=O)N1CCC[C@H]1C(=O)N[C@@H](CCC(=O)O)C(=O)N[C@@H](CCCCNC(=O)COCCOCCNC(=O)COCCOCCNC(=O)CC[C@H](NC(=O)CCCCCCCCCCCCCCCCC(=O)O)C(=O)O)C(=O)N[C@H](C(=O)N[C@@H](CCC(=O)O)C(=O)N[C@@H](CCC(=O)O)C(=O)N[C@@H](CCC(=O)O)C(=O)N[C@@H](C)C(=O)N[C@@H](CO)C(=O)N1CCC[C@H]1C(=O)N[C@@H](CCC(=O)O)C(=O)N[C@@H](CCC(=O)O)C(=O)N[C@@H](CC(C)C)C(=O)N[C@@H](CCC(N)=O)C(=O)N[C@@H](CCCNC(=N)N)C(=O)N[C@@H](Cc1ccc(O)cc1)C(=O)N[C@@H](Cc1ccc(O)cc1)C(=O)N[C@H](C(=O)N[C@@H](CO)C(=O)N[C@@H](CC(C)C)C(=O)N[C@@H](CCCNC(=N)N)C(=O)N[C@@H](Cc1c[nH]cn1)C(=O)N[C@@H](Cc1ccc(O)cc1)C(=O)N[C@@H](Cc1ccc(O)cc1)C(=O)N[C@@H](CC(N)=O)C(=O)N[C@@H](Cc1c[nH]c2ccccc12)C(=O)N[C@@H](CC(C)C)C(=O)N[C@H](C(=O)N[C@@H](CCCNC(=N)N)C(=O)N[C@@H](CCC(N)=O)C(=O)N[C@@H](CCCNC(=N)N)C(=O)N[C@@H](Cc1ccc(O)cc1)C(N)=O)[C@@H](C)O)C(C)C)[C@@H](C)O` [Compound 238, N{alpha-4}-(3-methylbutanoyl)-N{epsilon-7}-[2-(2-{2-[2-(2-{2-[(4S)-4-carboxy-4-(17-carboxyheptadecanamido)butanamido]ethoxy}ethoxy)acetamido]ethoxy}ethoxy)acetamido]-[4A,7K,8T,9E,11E,18Q,22V,28Y,30W,31L]hPYY (4-36)] (Isovaleryl-APEK([AEEA-AEEA-γGlu-C18 diacid])TEEEASPEELQRYYVSLRHYYNWLTRQRY-NH2) it was 25.1 nM; in that of `CC(C)CC(=O)N[C@@H](C)C(=O)N1CCC[C@H]1C(=O)N[C@@H](CCC(=O)O)C(=O)N[C@@H](CCCCNC(=O)COCCOCCNC(=O)COCCOCCNC(=O)CC[C@H](NC(=O)CCCCCCCCCCCCCCCCC(=O)O)C(=O)O)C(=O)N1CCC[C@H]1C(=O)N[C@@H](CCC(=O)O)C(=O)N[C@@H](CCC(=O)O)C(=O)N[C@@H](CC(=O)O)C(=O)N[C@@H](C)C(=O)N[C@@H](CO)C(=O)N1CCC[C@H]1C(=O)N[C@@H](CCC(=O)O)C(=O)N[C@@H](CCC(=O)O)C(=O)N[C@H](C(=O)N[C@@H](CCC(N)=O)C(=O)N[C@@H](CCCCN)C(=O)N[C@@H](Cc1ccc(O)cc1)C(=O)N[C@@H](Cc1ccc(O)cc1)C(=O)N[C@H](C(=O)N[C@@H](CO)C(=O)N[C@@H](CC(C)C)C(=O)N[C@@H](CCCNC(=N)N)C(=O)N[C@@H](Cc1c[nH]cn1)C(=O)N[C@@H](Cc1ccc(O)cc1)C(=O)N[C@@H](Cc1ccc(O)cc1)C(=O)N[C@@H](CC(N)=O)C(=O)N[C@@H](Cc1c[nH]c2ccccc12)C(=O)N[C@@H](CC(C)C)C(=O)N[C@H](C(=O)N[C@@H](CCCNC(=N)N)C(=O)N[C@@H](CCC(N)=O)C(=O)N[C@@H](CCCNC(=N)N)C(=O)N[C@@H](Cc1ccc(O)cc1)C(N)=O)[C@@H](C)O)C(C)C)[C@@H](C)O` [Compound 147, N{alpha-4}-(3-methylbutanoyl)-N{epsilon-7}-[2-(2-{2-[2-(2-{2-[(4S)-4-carboxy-4-(17-carboxyheptadecanamido)butanamido]ethoxy}ethoxy)acetamido]ethoxy}ethoxy)acetamido]-[4A,7K,9E,17T,18Q,19K,22V,28Y,30W,31L]hPYY (4-36)], 1.19 nM.

The Ki is a dissociation constant, usually derived from enzyme kinetics or from competition with a known ligand.
